Earlier results, collected in paper PMC10197133, “Synthesis, Computational Insights, and Evaluation of Novel Sigma Receptors Ligands” (ACS Chemical Neuroscience, 2023).

Target: S1R (Rattus norvegicus, UniProt Q9R0C9)
Details: statement in the introduction; cited from earlier work

S1R, sequence (Q9R0C9 whole entry): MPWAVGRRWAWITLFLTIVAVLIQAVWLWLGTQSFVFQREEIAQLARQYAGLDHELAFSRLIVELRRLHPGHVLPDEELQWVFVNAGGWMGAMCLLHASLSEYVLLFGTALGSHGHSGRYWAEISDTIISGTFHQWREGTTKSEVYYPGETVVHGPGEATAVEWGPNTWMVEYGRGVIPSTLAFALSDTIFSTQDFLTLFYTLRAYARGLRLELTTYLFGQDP

## CCCN1CCC(c2cccc(S(C)(=O)=O)c2)CC1 [Pridopidine]
  fold greater affinity for S1R than for D2: 100 fold
